We go through 1 compound from PMC4486092 (Clinical Pharmacokinetics, 2015).

For data set [1] the following is noted: single rising-dose study, healthy volunteers, up to a dose of 600 mg ref 5; cited from earlier work.
For data set [2] the following is noted: not estimated, fixed to estimates of the previous model ref 15; cited from earlier work.
The nature of data set [3]: Population pharmacokinetic analysis of linagliptin plasma concentrations. The class given is in vivo, human (patients with T2DM).

Consider `CC#CCn1c(N2CCC[C@@H](N)C2)nc2c1c(=O)n(Cc1nc(C)c3ccccc3n1)c(=O)n2C` [linagliptin, (R)-8-(3-Amino-piperidin-1-yl)-7-but-2-ynyl-3-methyl-1-(4-methyl-quinazolin-2-ylmethyl)-3,7-dihydro-purine-2,6-dione], for which the “tolerability of a single dose” value in data set [1] is listed as “well tolerated”. Moreover, in data set [2], the “VP/F: typical volume of distribution of the peripheral compartment” value was 1,650 L. Also, the “change in exposure, combination of covariate effects (largest decrease)” value in data set [3] (5 mg, person, 117 kg, GGT 9.4 U/L, pre-dose DPP-4 activity 8,025 RFU) is on record as −26%. The “increase in linagliptin exposure, impact of weight” value in data set [3] (5th percentile of weight) is listed as 5.9%. Moreover, the “increase in linagliptin exposure with age” value in data set [3] (73-year-old vs 42-year-old patient (95th and 5th percentile of age)) worked out at 13.8%. In data set [3] (95th percentile of weight), the “decrease in linagliptin exposure, impact of weight” value was determined as 8.7%. Moreover, the “Weight_F: percentage change in F per kg change from median weight of population” value in data set [3] (covariate effect, median weight 88 kg, final model) was −0.958. The “Dose_Ka: percentage change in Ka per dose unit change from the 5 mg dose group” value in data set [3] (covariate effect, final model) is on record as −6.51. In data set [3] (final model), the “CL/F: typical clearance of the unbound concentration” value is 258 L/h, the “πF: intra-individual variability in relative bioavailability” value turned out to be 40.0 CV %, the “ωCL: inter-individual variability in clearance of the unbound concentration” value turned out to be 27.5 CV % and the “ωF: inter-individual variability in relative bioavailability” value is on record as 47.4 CV %. Further, in data set [3] (final model), the “ωKa: inter-individual variability in the absorption rate constant” value stood at 76.4 CV % and the “ωVC: inter-individual variability in the central volume of distribution” value was 24.4 CV %. In addition, the Vd/F (commonly the volume of distribution divided by bioavailability) in data set [3] (human, in vivo) is 715 L. The “Ka,1: typical absorption rate constant study 1” value in data set [3] (powder in bottle formulation, oral) came out at 0.933 h⁻¹. Also, the “linear decrease in bioavailability for every 1 kg increase in weight” value in data set [3] (relative bioavailability, oral) is reported as 0.96%. Besides, in data set [3] (tablet formulation 1, oral), the “Ka,2: typical absorption rate constant study 2” value came out at 0.795 h⁻¹. Further, the “Ka,3: typical absorption rate constant studies 3/4” value in data set [3] (tablet formulation 2, oral) was 0.441 h⁻¹.
